The source of these data is US4341781A, “Pyridazopyridazine derivatives” (Hoffmann-La Roche Inc., priority 1979, dated 1982).

pIC50: −log10 of the molar value.

In the test the target is T1, angiotensin converting enzyme (Oryctolagus cuniculus, UniProt P12822).
T1 sequence (P12822 34-1310): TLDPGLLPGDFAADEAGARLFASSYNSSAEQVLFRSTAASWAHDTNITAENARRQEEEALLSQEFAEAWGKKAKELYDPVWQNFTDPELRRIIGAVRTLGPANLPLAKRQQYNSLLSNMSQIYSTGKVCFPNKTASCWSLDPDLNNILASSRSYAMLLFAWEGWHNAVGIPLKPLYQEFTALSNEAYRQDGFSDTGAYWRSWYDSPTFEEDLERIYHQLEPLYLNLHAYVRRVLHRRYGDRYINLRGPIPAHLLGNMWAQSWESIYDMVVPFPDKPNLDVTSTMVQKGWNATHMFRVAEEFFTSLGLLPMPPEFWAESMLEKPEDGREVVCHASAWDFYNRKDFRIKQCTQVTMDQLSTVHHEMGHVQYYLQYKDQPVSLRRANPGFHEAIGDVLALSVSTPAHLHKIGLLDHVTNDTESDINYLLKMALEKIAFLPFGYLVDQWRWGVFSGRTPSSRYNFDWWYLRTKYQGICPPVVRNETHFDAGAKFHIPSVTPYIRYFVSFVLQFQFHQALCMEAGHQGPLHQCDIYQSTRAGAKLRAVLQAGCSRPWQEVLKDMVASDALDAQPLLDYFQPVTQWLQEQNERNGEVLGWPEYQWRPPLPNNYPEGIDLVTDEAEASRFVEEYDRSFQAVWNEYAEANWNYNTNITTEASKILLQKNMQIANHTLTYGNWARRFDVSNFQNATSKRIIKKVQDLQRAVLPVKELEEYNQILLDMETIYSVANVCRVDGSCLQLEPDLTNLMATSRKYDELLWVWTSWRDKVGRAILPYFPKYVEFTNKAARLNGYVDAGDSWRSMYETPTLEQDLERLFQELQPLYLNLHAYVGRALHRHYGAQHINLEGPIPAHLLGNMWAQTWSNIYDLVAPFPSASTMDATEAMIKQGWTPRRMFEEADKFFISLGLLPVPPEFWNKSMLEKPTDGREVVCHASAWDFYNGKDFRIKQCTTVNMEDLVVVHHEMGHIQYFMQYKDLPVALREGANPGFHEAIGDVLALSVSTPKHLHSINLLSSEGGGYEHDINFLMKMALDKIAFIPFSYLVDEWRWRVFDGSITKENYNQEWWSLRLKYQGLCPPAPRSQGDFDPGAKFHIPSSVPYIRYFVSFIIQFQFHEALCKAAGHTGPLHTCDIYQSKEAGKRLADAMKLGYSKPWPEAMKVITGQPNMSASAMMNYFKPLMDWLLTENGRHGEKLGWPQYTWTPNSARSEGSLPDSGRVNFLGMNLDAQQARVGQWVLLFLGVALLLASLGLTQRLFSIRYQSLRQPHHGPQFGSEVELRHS
In words: Inhibition of angiotensin converting enzyme in vitro (hippuryl-histidyl-leucine cleavage, Cushman and Cheung method modified by Hayakari et al.). The format is biochemical. The settings on record: substrate hippuryl-histidyl-leucine 2 mM; potassium phosphate buffer pH 8.3, 300 mM NaCl; 25 minutes at 37° C. As to the method: The activity of the present pyridazopyridazine derivatives in inhibiting angiotensin converting enzyme in vitro can be determined by the following test.
The method used is based on the method of Cushman and Cheung (Biochem. Pharmacol., 20, 1637-1648) incorporating the modifications introduced by Hayakari, et al. (Anal. Biochem., 84, 361-369). The substrate (hippuryl-histidyl-leucine, 2 mM) is incubated with angiotensin converting enzyme in the presence or absence of various concentrations of test substance in potassium phosphate buffer (pH 8.3; 100 mM) containing sodium chloride (300 mM) for 25 minutes at 37° C. (total […] 500 μl). The reaction is terminated by the addition of 3 ml of potassium phosphate buffer (pH 8.3; 200 mM) at 0° C. 2,4,6-Trichloro-s-triazine (3%) in 1.5 ml of dioxane is added and the mixture is agitated until the yellow chromophore has developed fully. The samples are then centrifuged to remove any precipitate which has formed. The yellow chromophore formed by the reaction of the 2,4,6-trichloro-s-triazine with free hippuric acid is measured spectrophotometrically at 382 nm. IC50 values are defined as the concentration of test substance which reduces by 50% the cleavage of hippuryl-histidylleucine by angiotensin converting enzyme under the aforementioned conditions.

The term pIC50 denotes the negative decadic logarithm of the IC50, by convention in mol/L. A higher pIC50 goes with a low IC50.

The compound `O=C(O)C1CCCN2C(=O)CC(CS)C(=O)N12` (racemic) [racemic 8-(mercaptomethyl)-octahydro-6,9-dioxopyridazo[1,2-a]pyridazine-1-carboxylic acid] had a pIC50 of 7.20.
